Measured values: patent US6896914B2, “Method for normalizing insulin levels” (priority 2001, dated 2005)

Key:
[1] = system: mammals including man; details: cited from earlier work
[2] = system: overweight male human subjects; experiment: Example 1: double-blind study of enteric coated oral d-mannoheptulose with 1-glutamic acid, serum insulin, glucose and C-peptide; type: in vivo
Method: A six-week double-blind study would also determine if combining an amino acid (i.e., 1-glutamic acid) and enteric coating would enhance the bioavailability and efficacy of oral d-mannoheptulose and prevent diarrhea. The amount of amino acid used was 500 mg per dose.
Thirteen healthy male human subjects, aged thirty-seven to fifty-seven, each at least forty pounds overweight, underwent screening blood testing. The Automated Chemistry Profile used included the following measurements: Serum Glucose, BUN, Creatinine, BUN/Creatinine Ratio, Uric Acid, Sodium, Potassium, Chloride, Carbon Dioxide, Calcium, Phosphorous, Total Protein, Albumin, Globulin, A/G Ratio, Total Bilirubin, Alkaline Phosphatase, LDH, AST, ALT, and Iron. A Lipid Profile, and CBC with Differential were also measured. Tests specific to this study included C-Peptide, Serum Insulin, and Hemoglobin A1c.
Subjects were randomly placed into two groups: “A” (Purple Caps) and “B” (Green Caps). Neither subject nor investigator knew which dosage forms were active and which were placebo. Once a week for three weeks, all subjects came to a local medical office while fasting and, stayed for a period of at least four hours. Blood was drawn from each subject in the fasting state, immediately following a high sugar meal, and at one and three hours after taking 500 mg. of MH. Additionally, fasting blood levels of glucose and insulin were drawn two times a week.
The intent was to cross over the patient test groups at the end of three weeks. But, the response of the group receiving active substance was so obvious that any attempt to continue the double-blind methodology in secrecy was pointless. The active compound group not only stabilized their eating patterns, but also experienced considerable weight loss.
At the end of the third week, the code was broken, confirming that the subjects with the dramatic response were getting the active oral dosage form. Thereafter, all subjects were given the same active dosage form.

[3] = system: overweight hyperinsulinemic male and female subjects; experiment: Example 2: placebo-controlled crossover study of enteric coated d-manno-heptulose capsules, insulin, glucose, weight; type: in vivo, human
Method: All study subjects had serum insulin, blood glucose, and C-peptide levels drawn. The relationship of insulin to glucose was determined by the following formula: Glucose (mg %)×0.41−34=Insulin Thus: 83 mg % glucose×0.41=34.03−34=0.03 or, insulin vanishes from the blood at 83 mg %. Subjects were male and females under the age of 50, who were at least 45 pounds overweight according to the body mass index (BMI). […] Sixteen subjects were given 500 mg of d-manno-heptulose (MH) in enteric coated capsules. Sixteen subjects were given placebo in similar appearing capsules. All subjects received doses four times a day, which were orally ingested in the presence of the investigator. Insulin and glucose levels were drawn one hour after ingesting capsules, two hours afterwards, and four hours afterwards. C-peptide levels were measured once a day. Patients were asked to keep meal logs, recording everything that they ingested by mouth, on a daily basis, for the duration of the study. The subjects and investigators were both blind to the group receiving active medication. At the end of three weeks, the test groups were switched. The group receiving active dosage forms was switched with the group receiving placebo. The initial time period was designed to be three weeks. However, four patients dropped out because they found the schedule too demanding. Nine of the control group patients expressed a desire to quit, and four were allowed to withdraw. The remaining twenty-four subjects completed the six week period.

[4] = system: Hexokinase; details: cited from earlier work
[5] = system: obese patients; details: cited from earlier work
[6] = twelve active medication subjects, first three weeks

Q: For `O=C(CO)[C@@H](O)[C@@H](O)[C@H](O)[C@H](O)CO` [MH, d-mannoheptulose], which “effect on insulin release” value ([1]; mammals including man) is on record?
A: lower fasting and glucose stimulated peak insulin release

Q: And the “absorption on oral administration” value ([1]; oral)?
A: poor absorption on oral administration

Q: What about the “side effects on oral administration” value ([1]; oral) of the same molecule?
A: unpleasant side effects (e.g., diarrhea, nausea)

Q: What about the “weight loss and carbohydrate craving reported by participants” value ([2]; all study participants) of the same molecule?
A: significant weight-loss and reduction in carbohydrate craving

Q: And the “average fasting serum insulin lower than baseline” value ([2]; end of study vs baseline at beginning of study)?
A: 26.41%

Q: What about the “average reduction in C-peptide levels” value ([2]; end of study vs baseline, two subjects) of the same molecule?
A: 43%

Q: And the “fasting serum glucose higher than baseline” value ([2]; end of study vs baseline, called insignificant)?
A: 1.52%

Q: What about the “lowering elevated serum insulin” value ([2]; enterically coated MH) of the same molecule?
A: effective short-term and long-term

Q: And the nausea or diarrhea ([2]; enterically coated MH)?
A: not one instance of nausea or diarrhea was reported

Q: What about the indications of toxicity ([2]; hematological or symptomatic, any subject) of the same molecule?
A: no hematological or symptomatic indications of toxicity

Q: And the “glycemic state of participant hypoglycemic at entry” value ([2]; one study participant)?
A: became normalglycemic

Q: And the “serum insulin lower than baseline fasting insulin” value ([2]; three hours after one dose of MH, same-day glucose challenge, average)?
A: 22.4%

Q: And the average glucose increase ([2]; three hours after one dose of MH, same-day glucose challenge, called insignificant)?
A: 1.92%

Q: And the Fasting insulin ([3]; after active medication for three days, all subjects of A group)?
A: 0

Q: What about the “time to begin lowering plasma insulin levels” value ([3]; after administration) of the same molecule?
A: two

Q: What about the “tolerance for high-sugar foods” value ([3]; all MH recipients while on medication) of the same molecule?
A: diminished tolerance for high-sugar foods

Q: And the Fasting insulin ([3]; control group changed from placebo to MH, middle of second day, after six doses)?
A: 0

Q: What about the “average per day weight loss” value ([3]; control group changed from placebo to MH, over twenty-one days) of the same molecule?
A: 2.2 lbs.

Q: And the “average weight loss after switch to placebo” value ([3]; original twelve active patients)?
A: 0.7 lbs. per day

Q: And the “duration of insulin suppressing action after switch to placebo” value ([3]; original twelve active patients, on average)?
A: eleven

Q: And the Average weight loss [3, 6]?
A: 1.6 lbs. per day per subject

Q: What about the greatest weight loss [3, 6] of the same molecule?
A: 1.9 lbs. per day

Q: What about the lowest weight loss [3, 6] of the same molecule?
A: 1.2 lbs. per day

Q: What about the “average decrease of insulin levels” value ([3]; two hours after administration of MH, A group, twelve subjects) of the same molecule?
A: 81%

Q: And the inhibition of hexokinase [4]?
A: inhibits hexokinase in a predominantly competitive manner

Q: What does the source list for `CC1=NS(=O)(=O)c2cc(Cl)ccc2N1` [diazoxide]?
A: effect on blood pressure [5]: drops blood pressure dangerously; effect on insulin levels [5]: lowers insulin levels
